System: PEO1 cells
Test: Reversal of RNR inhibition by supplementing deoxyribonucleosides (MTS)
Assay type: cell-based
Settings: addition of dA plus dG, or all dNs, 72 hr
Protocol: FIG. 2, comprising FIG. 2A through FIG. 2F, depicts representative results of follow-up assays of in silico hit compounds in PEO1 and PEO4 cells. FIG. 2A depicts representative results of cytotoxicity assays on selected 25 in silico hit compounds in PEO1 and PEO4 cells. Cells were plated for 24 hr and then treated with 50 μM compounds for 72 hr. For a positive control, cells were treated with 1 μM triapine for 72 hr. The percentage of cell survival was determined by the MTS cytotoxicity assay. […] Cells were treated with 50 μM compounds or 1 μM triapine for 24 hr. During the last hour, cells were pulse-labeled with EdU, stained with the Click-iT EdU Alexa Fluor 488 Assay Kit, counterstained with 7-AAD, and subsequently analyzed by flow cytometry. EdU-positive cells were gated to determine the percentage of the S phase cell population. […] During the last hour, cells were pulse-labeled with EdU, stained with the Click-iT EdU Alexa Fluor 488 Assay Kit, counterstained with 7-AAD, and subsequently analyzed by flow cytometry. […] The percentages of DNA synthesis in cells treated with each of 10 compounds and triapine relative to the DMSO-treated control is calculated and shown. […] Cells were extracted with 65% methanol for determination of each of dNTPs expressed as pmole/10^6 cells. […] The percentage of cell survival was determined by the MTS cytotoxicity assay. […]

SMILES	reversal of inhibitory effects on cell survival by dNs
C=CCn1c(SCc2cccc(Cl)c2)nnc1C1CCN(Cc2nc3ccccc3s2)CC1 [DB4, 2-[(4-{4-allyl-5-[(3-chlorobenzyl)thio]-4H-1,2,4-triazol-3-yl}-1-piperidinyl)methyl]-1,3-benzothiazole]	partially reversed
NC(=S)NN=Cc1ncccc1N [triapine, 3-aminopyridine-2-carboxaldehyde-thiosemicarbazone, reference compound]	partially reversed

From US20240239786A1, “COMPOSITIONS AND METHODS FOR THE TREATMENT AND PREVENTION OF CANCER” (Yale University, priority 2021, published 2024)
